As usually defined, the MIC is the lowest concentration found to suppress growth.

What all share (experiment): MIC, serial dilutions in Müller-Hinton broth
Common to all, as to format: cell-based

The subject of assay [1] is A. baumannii 1425 PR. An outline of the steps: (§1)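 Broth microdilution in Müller-Hinton broth following MUK 4.2.1890-04, with two-fold compound dilutions at final 1-128 ug/ml. The inoculum was set to 0.5 McFarland and diluted to 10^7 CFU/ml before addition, then plates were incubated at 37° C. for 24 hours. MIC was the lowest concentration without visible growth, taking the highest of three independent runs.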

Assay [2] has as its system S. aureus ATCC 29213. An outline of the steps: as §1
In assay [3] the test system is Enterobacter spp. 16. Summed up: as §1
In assay [4] the test system is S. aureus 1167 MRSA. Summed up:
as §1

Assay [5] relates to S. aureus 1173 MRSA. An outline of the steps: as §1
In assay [6] the test system is E. faecalis 3047. Summed up: as §1
Assay [7] concerns S. aureus 20. Summed up:
as §1

In assay [8] the test system is S. aureus 21. Summed up:
as §1

The subject of assay [9] is Moraxella sp. 723. Summed up:
as §1

The test system of assay [10] is S. intermedius 1061 MRSI. An outline of the steps: as §1
Assay [11] has as its system S. aureus 981 MRSA. An outline of the steps:
as §1

In assay [12] the test system is Acinetobacter spp. 3. An outline of the steps: as §1
Assay [13] has as its system E. faecium 29. Summed up:
as §1

The test system of assay [14] is Moraxella sp. 713. An outline of the steps:
as §1

In assay [15] the test system is E. faecalis 26. Summed up:
as §1

Assay [16] deals with E. faecalis 3060. An outline of the steps: as §1
Assay [17] has as its system Acinetobacter spp. 4. An outline of the steps: as §1
The subject of assay [18] is Kl. pneumoniae 645 PR. Summed up:
as §1

In assay [19] the test system is S. aureus 967 MRSA. An outline of the steps: as §1
Assay [20] deals with Klebsiella spp. 12. An outline of the steps: as §1
For assay [21], the system named is Moraxella sp. 765. An outline of the steps: as §1

Like-named read-outs stand apart in the source and are kept apart here. Bounds are passed on as bounds.

Regarding `CCCCCCCCCCCC[N+](C)(C)Cc1cnc(C[N+](C)(C)CCCCCCCCCCCC)c2c1COC(CC)O2` (stereo not drawn) [Compound I, 5,8-(Bis(methylene (N, N-dimethyl-N-dodecylammonium))-2-ethyl-4H-[1,3]dioxino [4,5-c]pyridiniumdichloride], the MIC was determined as 8 µg/mL in [1] (Acinetobacter baumannii, A. baumannii 1425 PR, inoculum 10^7 CFU/ml, read-out: MIC); 4 µg/mL in assay [2] (Staphylococcus aureus, ATCC29213, S. aureus ATCC 29213, inoculum 10^7 CFU/ml, read-out: MIC); 8 µg/mL in [3] (Enterobacter spp. 16, inoculum 10^7 CFU/ml, read-out: MIC); 4 µg/mL in assay [4] (Staphylococcus aureus, S. aureus 1167 MRSA, inoculum 10^7 CFU/ml, read-out: MIC); 2 µg/mL in assay [5] (Staphylococcus aureus, S. aureus 1173 MRSA, inoculum 10^7 CFU/ml, read-out: MIC); 4 µg/mL in [6] (Enterococcus faecalis, E. faecalis 3047, inoculum 10^7 CFU/ml, read-out: MIC). Moreover, the MIC in [7] (Staphylococcus aureus, S. aureus 20, inoculum 10^7 CFU/ml, read-out: MIC) is 4 µg/mL; in assay [8] (Staphylococcus aureus, S. aureus 21, inoculum 10^7 CFU/ml, read-out: MIC), 1 µg/mL; in assay [9] (Moraxella sp. 723, inoculum 10^7 CFU/ml, read-out: MIC), 4 µg/mL; in assay [10] (S. intermedius 1061 MRSI, inoculum 10^7 CFU/ml, read-out: MIC), 1 µg/mL; in assay [11] (Staphylococcus aureus, S. aureus 981 MRSA, inoculum 10^7 CFU/ml, read-out: MIC), 4 µg/mL; in assay [12] (Acinetobacter spp. 3, inoculum 10^7 CFU/ml, read-out: MIC), 8 µg/mL. The MIC in assay [13] (Enterococcus faecium, E. faecium 29, inoculum 10^7 CFU/ml, read-out: MIC) is 0.03 µg/mL; in assay [14] (Moraxella sp. 713, inoculum 10^7 CFU/ml, read-out: MIC), 8 µg/mL; in assay [15] (Enterococcus faecalis, E. faecalis 26, inoculum 10^7 CFU/ml, read-out: MIC), 1 µg/mL; in [16] (Enterococcus faecalis, E. faecalis 3060, inoculum 10^7 CFU/ml, read-out: MIC) it was 1 µg/mL; in assay [17] (Acinetobacter spp. 4, inoculum 10^7 CFU/ml, read-out: MIC) it was 8 µg/mL; in [18] (Klebsiella pneumoniae, Kl. pneumoniae 645 PR, inoculum 10^7 CFU/ml, read-out: MIC), 32 µg/mL. Moreover, the MIC in assay [19] (Staphylococcus aureus, S. aureus 967 MRSA, inoculum 10^7 CFU/ml, read-out: MIC) was 16 µg/mL; in assay [20] (Klebsiella spp. 12, inoculum 10^7 CFU/ml, read-out: MIC), 16 µg/mL; in assay [21] (Moraxella sp. 765, inoculum 10^7 CFU/ml, read-out: MIC), 4 µg/mL.
As for `CCCCCCCCCCCCCC(=O)NCCC[N+](C)(C)Cc1ccccc1.O.[Cl-]` [Miramistin, benzyldimethyl [3-(myristoylamino)propyl]-ammonium chloride monohydrate], the MIC in [1] (Acinetobacter baumannii, 1425PR) is 64 µg/mL; in [2] (Staphylococcus aureus, ATCC29213), 16 µg/mL; in [3] (Enterobacter, SPP.16), 64 µg/mL; in assay [4] (Staphylococcus aureus, MRSA), 4 µg/mL; in assay [5] (Staphylococcus aureus, MRSA) it was 16 µg/mL; in [6] (Enterococcus faecalis, 3047), 2 µg/mL. Also, the MIC in [7] (Staphylococcus aureus, 20) worked out at 32 µg/mL; in assay [8] (Staphylococcus aureus, 21) it was 16 µg/mL; in [9] (Moraxella, SP.723), 32 µg/mL; in [10] it was 8 µg/mL; in [11] (Staphylococcus aureus, MRSA), 4 µg/mL; in assay [12] (Acinetobacter, SPP.3), 64 µg/mL. Further, the MIC was 8 µg/mL in [13] (Enterococcus faecium, 29); 32 µg/mL in assay [14] (Moraxella, SP.713); 4 µg/mL in assay [15] (Enterococcus faecalis, 26); 8 µg/mL in assay [16] (Enterococcus faecalis, 3060); more than 64 µg/mL in [17] (Acinetobacter, SPP.4); 64 µg/mL in [18] (Klebsiella pneumoniae, 645PR). For the same compound, the MIC in [19] (Staphylococcus aureus, MRSA) was 16 µg/mL; in assay [20] (Klebsiella, SPP.12), more than 64 µg/mL; in [21] (Moraxella, SP.765), 64 µg/mL.
As for “alkyldimethyl(phenylmethyl) ammonium chloride [Benzalconium chloride]”, the MIC was found to be 32 µg/mL in assay [1] (A. baumannii 1425 PR, inoculum 10^7 CFU/ml); 2 µg/mL in [2] (S. aureus ATCC 29213, inoculum 10^7 CFU/ml); 4 µg/mL in assay [3] (Enterobacter spp. 16, inoculum 10^7 CFU/ml); 2 µg/mL in assay [4] (S. aureus 1167 MRSA, inoculum 10^7 CFU/ml); 8 µg/mL in assay [5] (S. aureus 1173 MRSA, inoculum 10^7 CFU/ml); 2 µg/mL in assay [6] (E. faecalis 3047, inoculum 10^7 CFU/ml). In addition, the MIC in [7] (S. aureus 20, inoculum 10^7 CFU/ml) is less than 0.5 µg/mL; in [8] (S. aureus 21, inoculum 10^7 CFU/ml), less than 0.5 µg/mL; in assay [9] (Moraxella sp. 723, inoculum 10^7 CFU/ml), 4 µg/mL; in assay [10] (S. intermedius 1061 MRSI, inoculum 10^7 CFU/ml) it was 4 µg/mL; in assay [11] (S. aureus 981 MRSA, inoculum 10^7 CFU/ml), 4 µg/mL; in assay [12] (Acinetobacter spp. 3, inoculum 10^7 CFU/ml), 4 µg/mL. Also, the MIC in assay [13] (E. faecium 29, inoculum 10^7 CFU/ml) was less than 0.5 µg/mL; in assay [14] (Moraxella sp. 713, inoculum 10^7 CFU/ml) it was 4 µg/mL; in assay [15] (E. faecalis 26, inoculum 10^7 CFU/ml), 0.5 µg/mL; in assay [16] (E. faecalis 3060, inoculum 10^7 CFU/ml), 4 µg/mL; in assay [17] (Acinetobacter spp. 4, inoculum 10^7 CFU/ml) it was 4 µg/mL; in [18] (Kl. pneumoniae 645 PR, inoculum 10^7 CFU/ml), 16 µg/mL. In addition, the MIC came to 8 µg/mL in assay [19] (S. aureus 967 MRSA, inoculum 10^7 CFU/ml); 2 µg/mL in assay [20] (Klebsiella spp. 12, inoculum 10^7 CFU/ml); 32 µg/mL in assay [21] (Moraxella sp. 765, inoculum 10^7 CFU/ml).
